# Test results as given in the supplement of paper PMC13380429.
# Assays:
# Settings in all cases: 72 h
# [1] = system: HepG2; experiment: drug sensitivity score (DSS) for viability; higher = more toxic; extreme values may be limits of the assay
# [2] = system: Vero E6; experiment: as above
# [3] = system: Caco-2; experiment: as above
# [4] = system: Calu-3; experiment: as above
# [5] = system: U2OS; experiment: as above
# [6] = system: HepG2; experiment: cell viability relative to DMSO; higher = less toxic
# [7] = system: Vero E6; experiment: as above
# [8] = system: Caco-2; experiment: as above
# [9] = system: Calu-3; experiment: as above
# [10] = system: U2OS; experiment: as above
# [11] = system: HepG2; experiment: relative viability EC50 (midpoint between 100% and the lowest measured viability); higher = less toxic
# [12] = system: Vero E6; experiment: as above
# [13] = system: Caco-2; experiment: as above
# [14] = system: Calu-3; experiment: as above
# [15] = system: U2OS; experiment: as above
SMILES,drug sensitivity score [1],drug sensitivity score [2],drug sensitivity score [3],drug sensitivity score [4],drug sensitivity score [5],cell viability ([6]; 1 nM),cell viability ([6]; 10 nM),cell viability ([6]; 100 nM),cell viability ([6]; 1000 nM),cell viability ([6]; 10000 nM),cell viability ([7]; 1 nM),cell viability ([7]; 10 nM),cell viability ([7]; 100 nM),cell viability ([7]; 1000 nM),cell viability ([7]; 10000 nM),cell viability ([8]; 1 nM),cell viability ([8]; 10 nM),cell viability ([8]; 100 nM),cell viability ([8]; 1000 nM),cell viability ([8]; 10000 nM),cell viability ([9]; 1 nM),cell viability ([9]; 10 nM),cell viability ([9]; 100 nM),cell viability ([9]; 1000 nM),cell viability ([9]; 10000 nM),cell viability ([10]; 1 nM),cell viability ([10]; 10 nM),cell viability ([10]; 100 nM),cell viability ([10]; 1000 nM),cell viability ([10]; 10000 nM),relative viability EC50 [11],relative viability EC50 [12],relative viability EC50 [13],relative viability EC50 [14],relative viability EC50 [15]
Cc1ccc(C23CNCC2C3)cc1 (stereo not given) [bicifadine],0,0,0,0,0,99.7%,88.8%,100%,96.3%,94.7%,97.7%,93.8%,98.8%,96.3%,99.8%,103%,99%,106%,110%,97.4%,115%,96%,104%,105%,103%,96.8%,98.9%,103%,102%,96.4%,> 10 µM,> 10 µM,> 10 µM,> 10 µM,> 10 µM
COc1cc(C[C@@H]2NCCc3cc(O)c(O)cc32)cc(OC)c1OC [trimethoquinol],1.1,0,0.3,0,0,110%,99.2%,112%,90.6%,83.5%,103%,93.1%,108%,93.8%,96.9%,91.3%,114%,118%,107%,80.3%,91.7%,88.9%,101%,86%,95.7%,89.5%,97%,97.3%,102%,107%,> 10 µM,> 10 µM,> 10 µM,> 10 µM,> 10 µM
O=c1[nH]ccc2cc(OC3CCNCC3)ccc12,0,0,0,0,0,98.1%,99.7%,108%,112%,106%,97.1%,101%,89.6%,100%,92%,89.7%,96.4%,99.7%,100%,106%,93.8%,106%,111%,127%,130%,97.6%,98.2%,101%,96.3%,94.9%,> 10 µM,> 10 µM,> 10 µM,> 10 µM,> 10 µM
CCCn1c(=O)[nH]c(=O)c2nc[nH]c21 [enprofylline],0.2,0,0,0,0,97.4%,110%,100%,95.9%,88.2%,97.6%,98.3%,91.1%,94.7%,94.5%,104%,100%,99.5%,104%,95.5%,105%,96.9%,95.6%,108%,109%,104%,99.1%,98.9%,97.6%,104%,> 10 µM,> 10 µM,> 10 µM,> 10 µM,> 10 µM
C[C@H]1O[C@@H](O[C@H]2CC[C@@]3(C)[C@H](CC[C@@H]4[C@@H]3C[C@@H](O)[C@]3(C)[C@@H](C5=CC(=O)OC5)CC[C@]43O)C2)C[C@H](O)[C@@H]1O[C@H]1C[C@H](O)[C@H](O[C@H]2C[C@H](O)[C@H](O[C@@H]3O[C@H](CO)[C@@H](O)[C@H](O)[C@H]3O)[C@@H](C)O2)[C@@H](C)O1 [deslanoside],16.7,28.7,18.5,14,18,89.4%,92.9%,76.2%,25.5%,6.7%,96.7%,94.3%,14.8%,1.5%,1%,98.3%,95%,69.8%,18.6%,20%,102%,97.2%,94.2%,28.1%,19.1%,101%,98.9%,93.2%,5.9%,10.9%,0.266 µM,0.0401 µM,0.131 µM,0.356 µM,0.258 µM
CCC(C/C=C/c1ccccc1)(c1ccccc1)N(C)CC1CC1 (stereo not given) [igmesine],0,0,0,0,0,102%,105%,101%,102%,96.8%,98.8%,97.7%,94.2%,98.1%,107%,95.4%,97%,95.2%,102%,103%,99%,104%,96.8%,102%,97.8%,94.7%,99%,100%,101%,102%,> 10 µM,> 10 µM,> 10 µM,> 10 µM,> 10 µM
